Laboratory results published in patent publication US20070179060A1, “6-(Poly-substituted aryl)-4-aminopicolinates and their use as herbicides” (priority 2006, published 2007).

How the values were obtained:
Cyperus difformis = assay: Herbicidal activity in transplanted paddy rice; format: in vivo; conditions: Cyperus difformis, 504 h, paddy water application, after 3 weeks, read-out: % Control CYPDI; for pest or weed control at 17.5 g/ha: 17.5 g ai/ha; for pest or weed control at 70 g/ha: 70 g ai/ha
How it was run: (§1)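 Rice seedlings transplanted at second to third leaf stage and weeds from seed were grown in flooded mud pots in a greenhouse (~29/26 °C, 14 h photoperiod). At second or third true leaf stage, acetone stock solutions were injected into the paddy water at the high rate and ½× to 1/16× dilutions. Solvent-blank controls.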

Scirpus juncoides = assay: Herbicidal activity in transplanted paddy rice; format: in vivo; conditions: Schoenoplectiella juncoides, 504 h, paddy water application, after 3 weeks, read-out: % Control SCPJU; for pest or weed control at 17.5 g/ha: 17.5 g ai/ha; for pest or weed control at 70 g/ha: 70 g ai/ha
How it was run: as §1

Echinochloa crus-galli = assay: Herbicidal activity in transplanted paddy rice; format: in vivo; conditions: Echinochloa crus-galli, 504 h, paddy water application, after 3 weeks, read-out: % Control ECHCG; for pest or weed control at 17.5 g/ha: 17.5 g ai/ha; for pest or weed control at 70 g/ha: 70 g ai/ha
How it was run: as §1

[1] = system: rice (Orysa sativa var. Japonica); assay: Herbicidal activity in transplanted paddy rice; format: in vivo; conditions: Oryza sativa, 504 h, transplant rice (crop), paddy water application, after 3 weeks; for pest or weed control at 17.5 g/ha: 17.5 g ai/ha; for pest or weed control at 70 g/ha: 70 g ai/ha
How it was run: as §1

Monochoria vaginalis = assay: Herbicidal activity in transplanted paddy rice; format: in vivo; conditions: Pontederia vaginalis, 504 h, paddy water application, after 3 weeks, read-out: % Control MOOVA; for pest or weed control at 17.5 g/ha: 17.5 g ai/ha; for pest or weed control at 70 g/ha: 70 g ai/ha
How it was run: as §1

[2] = system: Hordeum vulgare (winter barley); assay: Postemergence herbicidal activity of mixtures in cereal crops; format: in vivo; conditions: after 3 weeks
Method: (§2) Seeds of the desired test plant species were planted and reared as described in “Evaluation of Postemergence Herbicidal Safening in Cereal Crops” (section 37).
(§3) Treatments consisted of compound (as listed in Tables 6 and 7), fluroxypyr methylheptyl ester (MHE), and clopyralid monoethanolamine (MEA) salt alone and in combination. Weighed amounts were placed in 25 mL glass vials and dissolved in a volume of 97:3 v/v acetone/DMSO to obtain 4.5 mg ai/mL stock solutions. […] The concentrated stock solutions were diluted to 1.5 mg ai/mL with the addition of 2 volumes of an aqueous mixture containing acetone, water, isopropyl alcohol, DMSO, Agri-dex crop oil concentrate, and Triton® X-77 surfactant in a 64.7:26.0:6.7:2.0:0.7:0.01 v/v ratio. A dilution solution was prepared by mixing 1 volume of 97:3 v/v acetone/DMSO and 2 volumes of an aqueous mixture containing acetone, water, isopropyl alcohol, DMSO, Agri-dex crop oil concentrate, and Triton® X-77 surfactant in a 64.7:26.0:6.7:2.0:0.7:0.01 v/v ratio. Compound requirements are based upon a 12 mL application volume at a rate of 187 L/ha. Spray solutions of fluroxypyr MHE, clopyralid MEA, and experimental compound mixtures were prepared by adding the stock solutions to the appropriate amount of dilution solution to form 12 mL spray solution with active ingredients in two- and three-way combinations. Formulated compounds were applied to the plant material with an overhead Mandel track sprayer equipped with a 8002E nozzles calibrated to deliver 187 L/ha over an application area of 0.503 square meters at a spray height of 18 inches (43 cm) above average plant canope. Control plants were sprayed in the same manner with the solvent blank.
(§4) The treated plants and control plants were placed in a greenhouse as described above and watered by sub-irrigation to prevent wash-off of the test compounds. After 3 weeks the condition of the test plants as compared with that of the control plants was determined visually and scored on a scale of 0 to 100 percent where 0 corresponds to no injury and 100 corresponds to complete kill.
(§5) Colby's equation was used to determine the herbicidal effects expected from the mixtures (Colby, S. R. 1967. Calculation of the synergistic and antagonistic response of herbicide combinations. Weeds 15:20-22.).
(§6) The following equation was used to calculate the expected activity of mixtures containing two active ingredients, A and B: Expected=A+B−(A×B/100) • A=observed efficacy of active ingredient A at the same concentration as used in the mixture. • B=observed efficacy of active ingredient B at the same concentration as used in the mixture.
(§7) The following equation was used to calculate the expected activity of mixtures containing three active ingredients, A, B, and C: Expected=A+B+C−(A×B+B×C+A×C)/100+(A×B×C)/10000 • A=observed efficacy of active ingredient A at the same concentration as used in the mixture. • B=observed efficacy of active ingredient B at the same concentration as used in the mixture. • C=observed efficacy of active ingredient C at the same concentration as used in the mixture.

Matricaria chamomilla = assay: as above; format: in vivo; conditions: after 3 weeks
Method: as §2, §3, §4, §5, §6, §7

[3] = system: Triticum aestivum (spring wheat); assay: as above; format: in vivo; conditions: after 3 weeks
Method: as §2, §3, §4, §5, §6, §7

[4] = Table 7, applied alone, 35 g ai/ha
[5] = Table 7, applied alone, 70 g ai/ha
[6] = Table 6, applied alone, 35 g ai/ha

SMILES: COC(=O)c1nc(-c2ccc(Br)c(OC)c2F)cc(N)c1Cl [Compound 27, 4-amino-6-(4-bromo-2-fluoro-3-methoxyphenyl)-3-chloro-pyridine-2-carboxylic acid methyl ester]
- melting point: 164 to 165 °C
- pest or weed control at 17.5 g/ha (Cyperus difformis): 100%
- pest or weed control at 17.5 g/ha (Scirpus juncoides): 99%
- pest or weed control at 17.5 g/ha (Echinochloa crus-galli): 45%
- pest or weed control at 17.5 g/ha [1]: 0%
- pest or weed control at 17.5 g/ha (Monochoria vaginalis): 100%

SMILES: COC(=O)c1nc(-c2ccc(Cl)c(OC)c2F)cc(N)c1Cl [Compound 42, 4-Amino-3-chloro-6-(4-chloro-2-fluoro-3-methoxyphenyl)pyridine-2-carboxylic acid methyl ester]
- % Control HORVW Ob [2, 4]: 25%
- % Control HORVW Ob [2, 5]: 30%
- % Control MATCH Ob (Matricaria chamomilla; [4]): 50%
- % Control MATCH Ob (Matricaria chamomilla; [5]): 60%
- % Control TRZAS Ob [3, 4]: 30%
- % Control TRZAS Ob [3, 5]: 45%
- pest or weed control at 17.5 g/ha (Cyperus difformis): 100%
- pest or weed control at 17.5 g/ha (Scirpus juncoides): 90%
- pest or weed control at 17.5 g/ha (Echinochloa crus-galli): 40%
- pest or weed control at 17.5 g/ha [1]: 5%
- pest or weed control at 17.5 g/ha (Monochoria vaginalis): 100%

SMILES: COC(=O)c1nc(-c2ccc(Cl)c(OC)c2Cl)cc(N)c1Cl [Compound 44, 4-Amino-3-chloro-6-(2,4-dichloro-3-methoxyphenyl)pyridine-2-carboxylic acid methyl ester]
- melting point: 168 to 170 °C
- pest or weed control at 70 g/ha (Cyperus difformis): 100%
- pest or weed control at 70 g/ha (Scirpus juncoides): 95%
- pest or weed control at 70 g/ha (Echinochloa crus-galli): 50%
- pest or weed control at 70 g/ha [1]: 0%
- pest or weed control at 70 g/ha (Monochoria vaginalis): 90%

SMILES: COC(=O)c1nc(-c2c(F)cc(Cl)c(OC)c2F)cc(N)c1Cl [Compound 58, 4-Amino-3-chloro-6-(4-chloro-2,6-difluoro-3-methoxyphenyl)pyridine-2-carboxylic acid, methyl ester]
- % Control HORVW Ob [2, 6]: 15%
- % Control MATCH Ob (Matricaria chamomilla; [6]): 0%
- % Control TRZAS Ob [3, 6]: 35%
- pest or weed control at 17.5 g/ha (Cyperus difformis): 100%
- pest or weed control at 17.5 g/ha (Scirpus juncoides): 50%
- pest or weed control at 17.5 g/ha (Echinochloa crus-galli): 30%
- pest or weed control at 17.5 g/ha [1]: 0%
- pest or weed control at 17.5 g/ha (Monochoria vaginalis): 100%

SMILES: COC(=O)c1nc(-c2ccc(F)c(OC)c2F)cc(N)c1Cl [Compound 70, 4-Amino-3-chloro-6-(2,4-difluoro-3-methoxyphenyl)pyridine-2-carboxylic acid, methyl ester]
- pest or weed control at 70 g/ha (Cyperus difformis): 95%
- pest or weed control at 70 g/ha (Scirpus juncoides): 95%
- pest or weed control at 70 g/ha (Echinochloa crus-galli): 45%
- pest or weed control at 70 g/ha [1]: 0%
- pest or weed control at 70 g/ha (Monochoria vaginalis): 100%

SMILES: COC(=O)c1nc(-c2c(F)cc(Br)c(OC)c2F)cc(N)c1Cl [Compound 77, 4-Amino-6-(4-bromo-2,6-difluoro-3-methoxyphenyl)-3-chloropyridine-2-carboxylic acid, methyl ester]
- pest or weed control at 35 g/ha (Cyperus difformis; 35 g ai/ha): 100%
- pest or weed control at 35 g/ha (Scirpus juncoides; 35 g ai/ha): 99%
- pest or weed control at 35 g/ha (Echinochloa crus-galli; 35 g ai/ha): 70%
- pest or weed control at 35 g/ha ([1]; 35 g ai/ha): 0%
- pest or weed control at 35 g/ha (Monochoria vaginalis; 35 g ai/ha): 100%

SMILES: COc1c(Cl)ccc(-c2cc(N)c(Cl)c(C(=O)O)n2)c1F [Compound 100, 4-Amino-3-chloro-6-(4-chloro-2-fluoro-3-methoxyphenyl)pyridine-2-carboxylic acid]
- pest or weed control at 17.5 g/ha (Cyperus difformis): 100%
- pest or weed control at 17.5 g/ha (Scirpus juncoides): 80%
- pest or weed control at 17.5 g/ha (Echinochloa crus-galli): 30%
- pest or weed control at 17.5 g/ha [1]: 10%
- pest or weed control at 17.5 g/ha (Monochoria vaginalis): 100%

SMILES: COc1c(Cl)ccc(-c2cc(N)c(Cl)c(C(=O)O)n2)c1Cl [Compound 103, 4-Amino-3-chloro-6-(2,4-dichloro-3-methoxyphenyl)pyridine-2-carboxylic acid]
- melting point: 179 to 180 °C (dec.)
- pest or weed control at 70 g/ha (Cyperus difformis): 100%
- pest or weed control at 70 g/ha (Scirpus juncoides): 95%
- pest or weed control at 70 g/ha (Echinochloa crus-galli): 40%
- pest or weed control at 70 g/ha [1]: 10%
- pest or weed control at 70 g/ha (Monochoria vaginalis): 100%
